Reference: patent EP0317956A2, “Anti-tumor prodrugs” (Bristol-Myers Squibb Company, priority 1987, dated 1989)

How the values were obtained:
P388 leukemia = assay: In vivo tumor test, i.p. implanted P388 leukemia; design: species or system mice; conditions: for Optimum Dose: P388, 10⁶ ascites cells i.p., single i.p. injection of drug, day 1; for Maximum Effect T/C: P388, T/C = median survival time (treated/control) X 100, single i.p. injection day 1, 30 days
Method: (§1) The in vivo tumor tests were performed utilizing methods described in detail in a previous publication (8). The lymphatic leukemias P-388 and L-1210 were used for initial testing of mitomycin and daunomycin derivatives respectively. Selected compounds were tested against subcutaneouly implanted B16 melanoma with treatment administered intravenously. Experimental parameters are shown in the footnotes of the accompanying tables.
(§2) Three murine tumor models were used to evaluate the in-vivo activities of the drugs.

B16 melanoma = assay: In vivo tumor test, subcutaneously implanted B16 melanoma; design: species or system mice; conditions: for Optimum Dose / Maximum Effect T/C: B16 melanoma s.c., three i.v. injections, days 1, 5 and 9; for Maximum Effect T/C: 60 days; for antitumor activity: subcutaneously implanted B16 melanoma, i.v. days 1, 5 and 9
Method: as §1
Some of the MMC and MMA derivatives were tested for activity against subcutaneously implanted B16 melanoma. In these experiments, the drugs were administered i.v. on days 1,5 and 9 after implantation of the tumor. The cleavable MMC prodrugs, 20 and 21, were about as active as MMC. […] The cleavable prodrugs, 24 - 27, were as active as MMA, with 24 showing slightly greater activity.

L1210 leukemia = assay: In vivo tumor test, i.p. implanted L1210 leukemia; design: species or system mice; conditions: for Optimum Dose: L1210, 10⁶ ascites cells i.p., single i.p. injection of drug, day 1; for Maximum Effect T/C: L1210, T/C = median survival time (treated/control) X 100, single i.p. injection day 1, 30 days; for in-vivo activity: L1210, optimal i.p. dose
Method: as §1, §2

[1] = Model study: stability and dithiothreitol-induced fragmentation of model benzyl carbamate disulfide; format: physicochemical
Description: In order to establish that benzyl carbamates with suitably positioned disulfide substituents would undergo fragmentation of the carbamate upon disulfide reduction, model studies were undertaken using p-nitroaniline as a leaving group. The synthesis of the model benzyl carbamate 12 is depicted in Figure 1.
The course of reaction was monitored by uv/vis spectroscopy, in which 14 (λ max 371 nm) was easily distinguished from the starting material 12 (λ max 313nm). […] It was also observed that the release of 14 was slightly faster at 37°C than at room temperature.

Compound: CO[C@@]12[C@H](COC(N)=O)C3=C(C(=O)C(C)=C(N)C3=O)N1C[C@H]1[C@@H]2N1C(=O)OCc1ccccc1SSc1ccccn1 [Compound 18, MMC Benzyl Carbamate Disulfide]
- Optimum Dose (P388 leukemia): 51.2 mg/kg
- Maximum Effect T/C (P388 leukemia): 195

Compound: CO[C@@]12[C@H](COC(N)=O)C3=C(C(=O)C(C)=C(N)C3=O)N1C[C@H]1[C@@H]2N1C(=O)OCc1ccc(SSc2ccccn2)cc1 [Compound 20, MMC Benzyl Carbamate Disulfide]
- Optimum Dose (B16 melanoma): 12.8 mg/kg/inj
- Maximum Effect T/C (B16 melanoma): 145
- Optimum Dose (P388 leukemia): 25.6 mg/kg
- Maximum Effect T/C (P388 leukemia): 353

Compound: COC1=C(C)C(=O)C2=C(C1=O)[C@@H](COC(N)=O)[C@@]1(OC)[C@H]3N[C@H]3CN21 [Compound 22, mitomycin A, reference compound]
- Optimum Dose (B16 melanoma): 0.4 mg/kg/inj
- Maximum Effect T/C (B16 melanoma): 182
- Optimum Dose (P388 leukemia): 3.2 mg/kg
- Maximum Effect T/C (P388 leukemia): 180

Compound: COc1cccc2c1C(=O)c1c(O)c3c(c(O)c1C2=O)C[C@@](O)(C(C)=O)C[C@@H]3O[C@H]1C[C@H](N)[C@H](O)[C@H](C)O1 [Compound 28, daunomycin, reference compound]
- Optimum Dose (L1210 leukemia): 3.2 mg/kg
- Maximum Effect T/C (L1210 leukemia): 154

Compound: COc1cccc2c1C(=O)c1c(O)c3c(c(O)c1C2=O)C[C@@](O)(C(C)=O)C[C@@H]3O[C@H]1C[C@H](NC(=O)OCc2ccccc2)[C@H](O)[C@H](C)O1 [Compound 29, DAU Benzyl Carbamate]
- Optimum Dose (L1210 leukemia): 9.0 mg/kg
- in-vivo activity (L1210 leukemia): inactive
- Maximum Effect T/C (L1210 leukemia): 100

Compound: Benzyl Carbamate Disulfide [Compound 12]
- stability in buffered aqueous methanol ([1]; aqueous methanol buffered between pH 6 to 8, no reducing agent): stable for several days
- release of p-nitroaniline upon treatment with dithiothreitol ([1]; dithiothreitol, uv/vis and HPLC): p-nitroaniline was released

Compound: DAU Benzyl Carbamate Disulfide [Compound 30]
- Optimum Dose (L1210 leukemia): 3.0 mg/kg
- in-vivo activity (L1210 leukemia): inactive
- Maximum Effect T/C (L1210 leukemia): 100

Compound: MMA Benzyl Carbamate Disulfide [Compound 23]
- Optimum Dose (B16 melanoma): 6.4 mg/kg/inj
- Maximum Effect T/C (B16 melanoma): 124
- antitumor activity (B16 melanoma): little activity

Compound: MMA Benzyl Carbamate Disulfide [Compound 25]
- Optimum Dose (B16 melanoma): 3.2 mg/kg/inj
- Maximum Effect T/C (B16 melanoma): 191
- Optimum Dose (P388 leukemia): 3.2 mg/kg
- Maximum Effect T/C (P388 leukemia): 153

Compound: MMA Benzyl Carbamate Disulfide [Compound 26]
- Optimum Dose (B16 melanoma): 3.2 mg/kg/inj
- Maximum Effect T/C (B16 melanoma): 182
- Optimum Dose (P388 leukemia): 3.2 mg/kg
- Maximum Effect T/C (P388 leukemia): 163

Compound: MMA Benzyl Carbamate Disulfide [Compound 27]
- Optimum Dose (B16 melanoma): 9.6 mg/kg/inj
- Maximum Effect T/C (B16 melanoma): 182
- Optimum Dose (P388 leukemia): 12.8 mg/kg
- Maximum Effect T/C (P388 leukemia): 163

Compound: MMC Benzyl Carbamate Disulfide [Compound 19]
- Optimum Dose (P388 leukemia): 51.2 mg/kg
- Maximum Effect T/C (P388 leukemia): 185

Compound: MMC Benzyl Carbamate Disulfide [Compound 21]
- Optimum Dose (B16 melanoma): 6.4 mg/kg/inj
- Maximum Effect T/C (B16 melanoma): 123
- Optimum Dose (P388 leukemia): 12.8 mg/kg
- Maximum Effect T/C (P388 leukemia): 222

Compound: MMC Benzyl Carbamate [Compound 17]
- Optimum Dose (B16 melanoma): 4.8 mg/kg/inj
- Maximum Effect T/C (B16 melanoma): 96
- antitumor activity (B16 melanoma): little activity
- Optimum Dose (P388 leukemia): 12.8 mg/kg
- Maximum Effect T/C (P388 leukemia): 144

Compound: mitomycin C [Compound 16, reference compound]
- Optimum Dose (B16 melanoma): 3.0 mg/kg/inj
- Maximum Effect T/C (B16 melanoma): 143
- Optimum Dose (P388 leukemia): 3.2 mg/kg
- Maximum Effect T/C (P388 leukemia): 266
